According to publication PMC10317891, “Fibroblast activation protein targeted radiotherapy induces an immunogenic tumor microenvironment and enhances the efficacy of PD-1 immune checkpoint inhibition” (European Journal of Nuclear Medicine and Molecular Imaging, 2023):
“And” between values parts separate entries of the source, which are not always exact repeats. Identical values can stand only once. Like-named read-outs stand apart in the source and are kept apart here. Numbered stars: 1 amine (or outer) side, 2 acyl side, 3 side chain; on linkers, the order of the positions; unused ones are H or OH. Bridge positions count the residues as written; N and C are the ends. Peptide text beside a SMILES is read from it. * marks the point of attachment. X1 = O=C(O)CN1CCN(CC(=O)O)CCN(CC(=O)N2CCN(Cc3cc(C[*:1])cc(C[*:2])c3)CC2)CCN(CC(=O)O)CC1; Hexanoyl = CCCCCC(=O)*

Experiments:
[1] = tested on: MCA205-mFAP tumors; test: Tumor mass in pharmacodynamic study; format: in vivo, C57BL/6 mice; conditions: day 13 pi; n = 8 per group; vehicle 1433 mg
Description: (§1) Female C57BL/6 mice were subcutaneously implanted with 1 × 10^6 MCA205-mFAP cells (n = 12 per group). […] Treatment began when the MTV was 94 mm^3 (mean body weight 20.4 g). […] Treatment began when MTV was 162 mm^3 (mean body weight 20.8 g) and tumors were collected at days 8 and 13 pi for analysis.

[2] = tested on: immune gene expression in MCA205-mFAP tumors; test: Tumor RNA expression analysis (nCounter PanCancer Immune Profiling panel); format: in vivo, C57BL/6 mice
Description: Total RNA was isolated from tumors using the PureLink RNA Mini kit (Thermo Fisher Scientific) following the manufacturer’s protocol. The nCounter PanCancer Immune Profiling (mouse) panel (NanoString Technologies) was used to measure the expression in the RNA samples. Following hybridization, transcripts were quantitated and analyzed using the nCounter Digital Analyzer and nCounter Advanced Analysis Software v4.0 (NanoString Technologies). Data were normalized for assay efficiency by multiplying each count by a positive normalization factor obtained for each sample. For differential expression analysis, the Benjamini-Yekutieli statistical analysis, which calculates false discovery rate, was employed to generate an adjusted p-value.

[3] = In vivo biodistribution by SPECT/CT imaging; design: species or system C57BL/6 mice; conditions: female, C57BL/6, mouse, total radioactivity; for tissue uptake at 3 h / tissue uptake at 24 h / tissue uptake at 48 h / tissue uptake at 72 h: mean ± SD, n = 6, SD
Method: All animal experiments were carried out under licenses approved by the respective authorities and in compliance with guidelines on animal welfare. […] Animals were anesthetized (isoflurane 3% in 100% O2) and eye lubricants were applied before each scan. Study was performed at Minerva Imaging ApS (Denmark).
Imaging and image analysis were performed as described. During the scan, mice were kept under isoflurane anesthesia, and body temperature was maintained under warm air. The following acquisition parameters were used for the respective imaging modality.
For quantification, VivoQuant (InviCRO) was used to draw regions of interest (ROIs) in relevant tissues, with a ROI drawn over the left ventricle of the heart to serve as blood pool surrogate. Percentage injected dose per gram of tissue (%ID/g) was calculated from the tissue-associated radioactivity determined in the ROI, the volume of the ROI, and the decay-corrected dose entered during preprocessing of the images in VivoQuant.

[4] = tested on: immune infiltrates of MCA205-mFAP tumors; test: Ex vivo immune profiling of tumors by flow cytometry; conditions: for CD8^+ (%, CD45^+) / CD86^+ on TAM (MFI) / CD127^+CD8^+ (%, CD8^+) / CD127 on CD127^+CD8^+ (MFI) / T cells (%, CD45^+) / TAM (%, CD45^+) / CD45^+ (%, total): mean ± SEM; for CD8^+ (%, CD45^+) / CD86^+ on TAM (MFI) / CD127^+CD8^+ (%, CD8^+) / CD127 on CD127^+CD8^+ (MFI) / T cells (%, CD45^+) / TAM (%, CD45^+) / CD4+ (%, CD45+) / CD25+CD4+ (%, CD4+) / CD25+CD8+ (%, CD8+) / CD25 on CD4+ (MFI) / CD25 on CD25+CD8+ (MFI) / CD86+ TAMs (%, TAMs) / CD127+CD4+ (%, CD4+) / CD127 on CD4+ (MFI) / CD45^+ (%, total): n = 8 per group; for CD45^+ (%, total): tumor flow cytometry;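 as to all read-outs here: subcutaneous MCA205-mFAP tumors in female C57BL/6 mice, treated from a mean tumor volume of 162 mm^3, excised on day 8 or 13 pi and profiled by flow cytometry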
Method: as §1
Tumors were dissected into small pieces, digested using a tumor dissociation enzyme mix (Miltenyi Biotec) at 37 °C for 40 min in a shaking water bath, processed through 70 μM cell strainers and counted (NucleoCounter NC-202, Chemotec). Cells (10 × 10^6) were Fc-blocked (2.4G2, BD Biosciences) and stained in FACS buffer (PBS with 0.5% BSA, 0.1% NaN3 and 2 mM EDTA) with Brilliant Stain Buffer Plus (BD Biosciences) for surface markers CD45 (30-F11), CD3 (145-2C11), CD4 (RM4-5), CD8 (53–6.7), CD25 (PC61), CD127 (SB/199), Ly6g (1A8), Ly6c (HK1.4), CD11b (M1/70), CD86 (GL1), CD314 (CX5), F4/80 (T45-2342), and eFlour 780 fixable viability dye (Thermo Fisher Scientific) for 30 min on ice. Anti-Ly6c was purchased from Biolegend, while remaining antibodies were from BD Biosciences. Samples were washed and acquired on the FACSymphony A3 and analyzed in FlowJo v10.8.1 (BD Biosciences, Supplementary Fig. S1).
PMN-MDSC CD45+ CD11b+ Ly6c+ Ly6g+
Mo-MDSC CD45+ CD11b+ Ly6c HighLy6g-
Gating strategy for immune profiling of MCA205-mFAP tumors by flow
cytometry. Representative bivariate density plots show gating strategy to identify the PMN-MDSC, Mo-
MDSC, TAM and T-cells in the MCA205-mFAP tumors (A). Marker sets used to identify each immune
cell type are listed (B).

[5] = tested on: T cell infiltrates of MCA205-mFAP tumors; test: IHC quantification of CD8+ and CD4+ T cells in tumors
Method: Tumors were formalin-fixed and paraffin-embedded and processed into 4 μm tissue sections. Tumor sections were stained for FAP (EPR20021, Abcam), CD8 (D4W2Z, Cell Signaling), and CD4 (EPR19514, Abcam) on a Bond Rx autostainer (Leica Biosystems) with Bond Polymer Refine Detection (Leica Biosystems) according to the manufacturer's protocol. After staining, sections were dehydrated and film cover slipped using a TissueTek-Prisma and Coverslipper (Sakura). Whole slide scanning (40x) was performed on an Aperio AT2 (Leica Biosystems). Image analysis and quantification was performed on Aperio ImageScope v12.1 (Leica Biosystems) or QuPath v0.1.2 [18].
A tissue slide containing both intrinsic positive staining structures was included in every staining run. For FAP H-score assessment, the staining intensity was scored as 0, 1, 2, or 3 corresponding to the presence of negative, weak, intermediate, and strong brown staining, respectively. The average percentage positive was calculated for each intensity category and the following calculation was applied: H-score = (% of cells stained at intensity category 1 x 1) + (% of cells stained at intensity category 2 x 2) + (% of cells stained at intensity category 3 x 3). Image analysis scoring was previously validated against scoring performed by a pathologist. For CD4 and CD8 percentage assessment, QuPath positive cell detection function was used.

[6] = tested on: MCA205-mFAP syngeneic tumor model; test: Tumor in vivo efficacy study
Method: Female C57BL/6 mice were subcutaneously implanted with 1 × 10^6 MCA205-mFAP cells (n = 12 per group). […] Treatment began when the MTV was 94 mm^3 (mean body weight 20.4 g).
Calculation of tumor growth inhibition (TGI). Percent TGI is defined as the difference between the mean tumor volume of the test group and the control group. TGI values are calculated as follows:
Tᵢ is the mean tumor volume of a treatment group on a given day i, T₀ is the mean tumor volume of the treatment group on the day treatment started (day 0), Vᵢ is the mean tumor volume of the vehicle control group on the same day as Tᵢ, and V₀ is the mean tumor volume of the vehicle group on the initial day of treatment (day 0).
Calculation of body weight loss. Relative body weight (RBW) was calculated as follows:
BWᵢ is the mean body weight of one group on a given day i, BW0 is the mean body weight of the same group on the day treatment started (day 0).
Statistical analysis. For the evaluation of the statistical significance of antitumor efficacy, body weight change, and immune profiling, two-way ANOVA with multiple comparisons was performed using GraphPad Prism (Version 8.4).
All P values <0.05 were considered statistically significant.

[7] = day 8 pi, differential expression versus vehicle, 770-plex panel

CCCCCC(=O)N[C@H]1CSCc2cc(cc(CN3CCN(C(=O)CN4CCN(CC(=O)O)CCN(CC(=O)O)CCN(CC(=O)O)CC4)CC3)c2)CSC[C@@H](C(=O)N[C@@H](CC(=O)O)C(N)=O)NC(=O)[C@H](Cc2ccccc2)NC(=O)[C@H](CCC(N)=O)NC(=O)[C@H]([C@@H](C)O)NC(=O)[C@@H]2CCCN2C(=O)[C@@H]2CCCN2C1=O [^177Lu-FAP-2287, metal not drawn] (Hexanoyl-CPPTQFCD-NH2; linker 1-7 via X1; N-terminus and C-terminus assumed)
Tumor mass [1]: 746 mg
number of gene transcripts decreased [2, 7]: 15 genes
number of genes with significantly increased RNA levels [2, 7]: 28 genes
number of day 8 differentially expressed genes still differentially expressed at day 13 pi ([2]; day 13 pi): 16 genes
CCL5 RNA increase in tumors ([2]; fold versus vehicle, day not given): 1.95 fold
tissue uptake at 3 h ([3]; blood pool surrogate (left ventricle of the heart), iv, 30 MBq, 3 h p.i., ROI over left ventricle of the heart, read-out: Blood Pool Surrogate %ID/g): 0.5 %ID/g
tissue uptake at 24 h ([3]; blood pool surrogate (left ventricle of the heart), iv, 30 MBq, 24 h p.i., ROI over left ventricle of the heart, read-out: Blood Pool Surrogate %ID/g): 0.1 %ID/g
tissue uptake at 48 h ([3]; blood pool surrogate (left ventricle of the heart), iv, 30 MBq, 48 h p.i., ROI over left ventricle of the heart, read-out: Blood Pool Surrogate %ID/g): 0.1 %ID/g
tissue uptake at 72 h ([3]; blood pool surrogate (left ventricle of the heart), iv, 30 MBq, 72 h p.i., ROI over left ventricle of the heart, read-out: Blood Pool Surrogate %ID/g): 0.1 %ID/g
tissue uptake at 3 h ([3]; kidney, 3 h p.i., 30 MBq iv, read-out: Kidney %ID/g): 2 ± 0.1 %ID/g
tissue uptake at 24 h ([3]; kidney, 24 h p.i., 30 MBq iv, read-out: Kidney %ID/g): 1.1 ± 0.1 %ID/g
tissue uptake at 48 h ([3]; kidney, 48 h p.i., 30 MBq iv, read-out: Kidney %ID/g): 0.9 %ID/g
tissue uptake at 72 h ([3]; kidney, 72 h p.i., 30 MBq iv, read-out: Kidney %ID/g): 0.6 ± 0.1 %ID/g
tissue uptake at 3 h ([3]; liver, 3 h p.i., 30 MBq iv, read-out: Liver %ID/g): 0.5 %ID/g
tissue uptake at 24 h ([3]; liver, 24 h p.i., 30 MBq iv, read-out: Liver %ID/g): 0.3 %ID/g
tissue uptake at 48 h ([3]; liver, 48 h p.i., 30 MBq iv, read-out: Liver %ID/g): 0.3 %ID/g
tissue uptake at 72 h ([3]; liver, 72 h p.i., 30 MBq iv, read-out: Liver %ID/g): 0.2 %ID/g
tissue uptake at 3 h ([3]; tumor, 3 h p.i., 30 MBq (1 nmol) iv, SPECT/CT, read-out: Tumor %ID/g): 8.2 ± 0.5 %ID/g
tissue uptake at 24 h ([3]; tumor, 24 h p.i., 30 MBq (1 nmol) iv, SPECT/CT, read-out: Tumor %ID/g): 2.9 ± 0.2 %ID/g
tissue uptake at 48 h ([3]; tumor, 48 h p.i., 30 MBq (1 nmol) iv, SPECT/CT, read-out: Tumor %ID/g): 1.6 ± 0.1 %ID/g
tissue uptake at 72 h ([3]; tumor, 72 h p.i., 30 MBq (1 nmol) iv, SPECT/CT, read-out: Tumor %ID/g): 0.9 ± 0.1 %ID/g
tissue to tissue ratio at 3 h ([3]; tumor/kidney, iv, 30 MBq, 3 h p.i., read-out: T/K ratio (tumor-to-kidney)): 4.1
tissue to tissue ratio at 24 h ([3]; tumor/kidney, iv, 30 MBq, 24 h p.i., read-out: T/K ratio (tumor-to-kidney)): 2.6
tissue to tissue ratio at 48 h ([3]; tumor/kidney, iv, 30 MBq, 48 h p.i., read-out: T/K ratio (tumor-to-kidney)): 1.8
tissue to tissue ratio at 72 h ([3]; tumor/kidney, iv, 30 MBq, 72 h p.i., read-out: T/K ratio (tumor-to-kidney)): 1.5
CD8^+ (%, CD45^+) ([4]; Day 8 pi, SEM): 16.9 ± 3.2%
CD86^+ on TAM (MFI) ([4]; Day 8 pi, SEM): 3928 ± 124 MFI
CD127^+CD8^+ (%, CD8^+) ([4]; Day 8 pi, SEM): 50.0 ± 5.3%
CD127 on CD127^+CD8^+ (MFI) ([4]; Day 8 pi, SEM): 1011 ± 118 MFI
T cells (%, CD45^+) ([4]; Day 8 pi, SEM): 22.9 ± 3.6%
TAM (%, CD45^+) ([4]; Day 8 pi, SEM): 23.0 ± 1.1%
CD4+ (%, CD45+) ([4]; Day 8 pi): 6.0 ± 0.6%
CD25+CD4+ (%, CD4+) ([4]; Day 8 pi): 60.4 ± 1.3%
CD25+CD8+ (%, CD8+) ([4]; Day 8 pi): 7.7 ± 1.1%
CD25 on CD4+ (MFI) ([4]; Day 8 pi): 931 ± 117 MFI
CD25 on CD25+CD8+ (MFI) ([4]; Day 8 pi): 84 ± 6 MFI
CD86+ TAMs (%, TAMs) ([4]; Day 8 pi): 89.5 ± 1.7%
CD127+CD4+ (%, CD4+) ([4]; Day 8 pi): 41.0 ± 1.8%
CD127 on CD4+ (MFI) ([4]; Day 8 pi): 777 ± 43 MFI
CD45^+ (%, total) ([4]; Day 8 pi, SEM): 23.6 ± 3.1%
CD8^+ (%, CD45^+) ([4]; Day 13 pi, SEM): 11.9 ± 1.5%
CD86^+ on TAM (MFI) ([4]; Day 13 pi, SEM): 4063 ± 143 MFI
CD127^+CD8^+ (%, CD8^+) ([4]; Day 13 pi, SEM): 44.5 ± 3.7%
CD127 on CD127^+CD8^+ (MFI) ([4]; Day 13 pi, SEM): 874 ± 86 MFI
T cells (%, CD45^+) ([4]; Day 13 pi, SEM): 19.0 ± 1.5%
TAM (%, CD45^+) ([4]; Day 13 pi, SEM): 39.4 ± 1.4%
CD4+ (%, CD45+) ([4]; Day 13 pi): 7.2 ± 0.4%
CD25+CD4+ (%, CD4+) ([4]; Day 13 pi): 64.5 ± 1.2%
CD25+CD8+ (%, CD8+) ([4]; Day 13 pi): 5.3 ± 0.6%
CD25 on CD4+ (MFI) ([4]; Day 13 pi): 1182 ± 80 MFI
CD25 on CD25+CD8+ (MFI) ([4]; Day 13 pi): 70 ± 4 MFI
CD86+ TAMs (%, TAMs) ([4]; Day 13 pi): 92.0 ± 1.2%
CD127+CD4+ (%, CD4+) ([4]; Day 13 pi): 38.9 ± 2.2%
CD127 on CD4+ (MFI) ([4]; Day 13 pi): 736 ± 51 MFI
CD45^+ (%, total) ([4]; Day 13 pi, SEM): 21.6 ± 1.4%
CD86+ Mo-MDSCs (%, Mo-MDSCs) ([4]; mouse, in vivo): 84.9 ± 1.2% and 82.2 ± 2.9%
PMN-MDSCs (%, CD45+) ([4]; mouse, in vivo): 9.6 ± 3.9% and 10.0 ± 1.3%
CD86^+ on Mo-MDSC (MFI) ([4]; mouse, in vivo, SEM): 3267 ± 80 MFI and 2939 ± 114 MFI
Mo-MDSC (%, CD45^+) ([4]; mouse, in vivo, SEM): 34.9 ± 0.9% and 21.3 ± 1.3%
CD8^+ T cells by IHC (% of total cells) ([5]; day 8 pi, vehicle 4.9%): 9.0%
CD8^+ T cells by IHC (% of total cells) ([5]; day 13, vehicle 4.4%): 8.5%
TGI, Day 10 ([6]; day 10 pi, versus vehicle, n = 12 per group): 74%
MTV, Day 10 ([6]; day 10 pi, 60 MBq 177Lu-FAP-2287 single iv dose and/or 10 mg/kg anti-PD-1 ip twice weekly, mean ± SEM, n = 12, vehicle 749.6 ± 91.2, SEM): 266.5 ± 53.2 mm^3
RBW at nadir ([6]; relative body weight change at nadir (Day 2), mean ± SEM, n = 12, SEM): -1.1 ± 0.7%
